Measurements reported in PMC6112376, “Comprehensive Analyses and Prioritization of Tox21 10K Chemicals Affecting Mitochondrial Function by in-Depth Mechanistic Studies” (Environmental Health Perspectives, 2018).
Where two headings read alike, the source gives them in different places.

Columns and labels:
hNSC = experiment: MMP assay in human neural stem cells (hNSC); assay type: cell-based; settings: Homo sapiens, Neural stem cell; 1 h treatment; fresh re-sourced stocks; mean±SD of three experiments; read-out: hNSC IC50 (MMP)
HepG2 cells [1] = experiment: ROS-Glo hydrogen peroxide (ROS) assay; assay type: cell-based, human; settings: Homo sapiens, read-out: ROS (HepG2) EC50
HepG2 cells [2] = experiment: Intracellular ATP content (cell viability) assay; assay type: cell-based, human; settings: for IC50: Homo sapiens, HepG2
[3] = test system: Nrf2/ARE (ARE-bla HepG2 cells); experiment: ARE β-lactamase reporter gene assay; assay type: cell-based, human; settings: for EC50: Homo sapiens, read-out: ARE (HepG2) EC50
[4] = test system: isolated rat liver mitochondria; experiment: Oxygen consumption, Clark-type oxygen electrode; assay type: biochemical
[5] = test system: HeLa cells expressing YFP-Parkin; experiment: Parkin translocation assay; assay type: cell-based, human
HepG2 cells [6] = settings: cited from earlier work
HepG2 cells [7] = experiment: cells; settings: Homo sapiens; for Emax: HepG2, read-out: MMP assays efficacy (%) HepG2
[8] = test system: Caenorhabditis elegans strain PE255; experiment: In vivo C. elegans ATP status assay; settings: for minimal effective concentration: Caenorhabditis elegans, read-out: LEC LUM: lowest effect concentration for luminescence, a measure of nematode ATP content
rat primary hepatocytes [9] = experiment: MMP assay in rat primary hepatocytes; settings: for Rat hepatocytes (efficacy) (MMP): % of positive control, mean±SD of three experiments; for IC50: Rattus norvegicus, Hepatocyte; for MMP assays efficacy (%) Rat Hepatocytes: mean ± SD of three experiments
[10] = test system: Caenorhabditis elegans (Bristol N2); experiment: C. elegans larval development and growth assay
[11] = test system: p53 (p53-bla HCT-116 cells); experiment: p53 β-lactamase reporter gene assay; assay type: cell-based, human
HepG2 cells [12] = test system: HepG2 cells
rat primary hepatocytes [13] = test system: rat primary hepatocytes
[14] = HepG2, 2 h treatment, mean±SD of three experiments
[15] = 5 mM glucose, 40 h treatment, mean±SD of three experiments
[16] = 10 mM galactose, 40 h treatment, mean±SD of three experiments
[17] = HepG2, 16 h incubation, mean±SD of three experiments
[18] = 100 µM, glutamate/malate driven state 3 respiration, isolated rat liver mitochondria
[19] = 100 µM, glutamate/malate driven state 4 respiration, isolated rat liver mitochondria
[20] = 100 µM, succinate-driven state 3 respiration, isolated rat liver mitochondria
[21] = 100 µM, succinate-driven state 4 respiration, isolated rat liver mitochondria
[22] = mitochondrial respiration in isolated rat liver mitochondria, Clark type oxygen electrode, over tested concentrations
[23] = HeLa cells stably expressing YFP-Parkin, treated for 2 h
[24] = HepG2, 1 h, read-out: HepG2 IC50 Galactose (MMP)
[25] = HepG2, 1 h, read-out: HepG2 IC50 Glucose (MMP)
[26] = HepG2, read-out: MMP assays IC50 (µM) HepG2
[27] = 1 h, read-out: Rat hepatocytes IC50 (MMP)
[28] = read-out: MMP assays IC50 (µM) Rat Hepatocytes
[29] = read-out: MMP assays IC50 (µM), qHTS-HepG2
[30] = 16 h incubation, mean±SD of three experiments

NNc1nc(-c2ccccc2)cs1 [2-Hydrazino-4-phenylthiazole]
IC50 (hNSC): 14.2 ± 2.56 µM
EC50 (HepG2 cells [1]; [14]): 34.5 ± 28.8 µM
ATP (HepG2, glucose) IC50 (HepG2 cells [2]; [15]): Inactive
ATP (HepG2, galactose) IC50 (HepG2 cells [2]; [16]): Inactive
EC50 [3, 17]: 6.92 ± 1.73 µM
I-ADP, % of control (O2 consumption rate) [4, 18]: 94 (50.2) % of control
I-sub, % of control (O2 consumption rate) [4, 19]: 119 (16.0) % of control
II-ADP, % of control (O2 consumption rate) [4, 20]: 88 (59.2) % of control
II-sub, % of control (O2 consumption rate) [4, 21]: 99 (21.4) % of control
Potential Mechanism [4, 22]: Inactive
Parkin recruitment [5, 23]: Inactive
MMP assays efficacy (%) qHTS-HepG2 (HepG2 cells [6]): -118±14%
IC50 (HepG2 cells [6]; read-out: MMP assays IC50 (µM) qHTS-HepG2): 2.32 ± 0.79 µM
IC50 (HepG2 cells [7]; [24]): 48.2 ± 17.5 µM
IC50 (HepG2 cells [7]; [25]): 37.1 ± 6.33 µM
IC50 (HepG2 cells [7]; [26]): 10 µM
Emax (HepG2 cells [7]): 103%
minimal effective concentration [8]: 25 µM
Rat hepatocytes (efficacy) (MMP) (rat primary hepatocytes [9]): −57.1±16.9%
IC50 (rat primary hepatocytes [9]; [27]): 54.7 ± 21.1 µM
IC50 (rat primary hepatocytes [9]; [28]): 21.5 ± 17.6 µM
MMP assays efficacy (%) Rat Hepatocytes (rat primary hepatocytes [9]): -81±30%
LEC (lowest effect concentration), larval growth assay ([10]; 48 h exposure): ≤ 10 µM
minimal effective concentration ([10]; Caenorhabditis elegans, read-out: LEC EXT: lowest effect concentration for extinction, a measure of nematode size): 10 µM

O=C(O)c1cccnc1Nc1cccc(C(F)(F)F)c1 [Niflumic acid, reference compound]
IC50 (hNSC): 38.3 ± 4.41 µM
EC50 (HepG2 cells [1]; [14]): 6.35 ± 2.16 µM
ATP (HepG2, glucose) IC50 (HepG2 cells [2]; [15]): Inactive
ATP (HepG2, galactose) IC50 (HepG2 cells [2]; [16]): Inactive
EC50 [3, 17]: 25.1 ± 2.05 µM
I-ADP, % of control (O2 consumption rate) ([4]; 0.032 µM, glutamate/malate driven state 3 respiration, isolated rat liver mitochondria): 91 (32.6) % of control
I-sub, % of control (O2 consumption rate) ([4]; 0.032 µM, glutamate/malate driven state 4 respiration, isolated rat liver mitochondria): 116 (11.1) % of control
II-ADP, % of control (O2 consumption rate) ([4]; 0.032 µM, succinate-driven state 3 respiration, isolated rat liver mitochondria): 90 (48.1) % of control
II-sub, % of control (O2 consumption rate) ([4]; 0.032 µM, succinate-driven state 4 respiration, isolated rat liver mitochondria): 110 (18.1) % of control
I-ADP, % of control (O2 consumption rate) ([4]; 0.16 µM, glutamate/malate driven state 3 respiration, isolated rat liver mitochondria): 82 (29.2) % of control
I-sub, % of control (O2 consumption rate) ([4]; 0.16 µM, glutamate/malate driven state 4 respiration, isolated rat liver mitochondria): 111 (10.7) % of control
II-ADP, % of control (O2 consumption rate) ([4]; 0.16 µM, succinate-driven state 3 respiration, isolated rat liver mitochondria): 101 (54.0) % of control
II-sub, % of control (O2 consumption rate) ([4]; 0.16 µM, succinate-driven state 4 respiration, isolated rat liver mitochondria): 124 (20.4) % of control
I-ADP, % of control (O2 consumption rate) ([4]; 0.8 µM, glutamate/malate driven state 3 respiration, isolated rat liver mitochondria): 91 (32.5) % of control
I-sub, % of control (O2 consumption rate) ([4]; 0.8 µM, glutamate/malate driven state 4 respiration, isolated rat liver mitochondria): 131 (12.6) % of control
II-ADP, % of control (O2 consumption rate) ([4]; 0.8 µM, succinate-driven state 3 respiration, isolated rat liver mitochondria): 89 (47.6) % of control
II-sub, % of control (O2 consumption rate) ([4]; 0.8 µM, succinate-driven state 4 respiration, isolated rat liver mitochondria): 135 (22.1) % of control
I-ADP, % of control (O2 consumption rate) ([4]; 4 µM, glutamate/malate driven state 3 respiration, isolated rat liver mitochondria): 86 (30.8) % of control
I-sub, % of control (O2 consumption rate) ([4]; 4 µM, glutamate/malate driven state 4 respiration, isolated rat liver mitochondria): 180 (17.3) % of control
II-ADP, % of control (O2 consumption rate) ([4]; 4 µM, succinate-driven state 3 respiration, isolated rat liver mitochondria): 96 (51.1) % of control
II-sub, % of control (O2 consumption rate) ([4]; 4 µM, succinate-driven state 4 respiration, isolated rat liver mitochondria): 221 (36.2) % of control
I-ADP, % of control (O2 consumption rate) ([4]; 20 µM, glutamate/malate driven state 3 respiration, isolated rat liver mitochondria): 101 (36.0) % of control
I-sub, % of control (O2 consumption rate) ([4]; 20 µM, glutamate/malate driven state 4 respiration, isolated rat liver mitochondria): 380 (36.5) % of control
II-ADP, % of control (O2 consumption rate) ([4]; 20 µM, succinate-driven state 3 respiration, isolated rat liver mitochondria): 54 (28.9) % of control
II-sub, % of control (O2 consumption rate) ([4]; 20 µM, succinate-driven state 4 respiration, isolated rat liver mitochondria): 195 (32.0) % of control
I-ADP, % of control (O2 consumption rate) [4, 18]: 70 (32.1) % of control
I-sub, % of control (O2 consumption rate) [4, 19]: 234 (36.2) % of control
II-ADP, % of control (O2 consumption rate) [4, 20]: 23 (16.4) % of control
II-sub, % of control (O2 consumption rate) [4, 21]: 56 (17.7) % of control
Potential Mechanism [4, 22]: Uncoupler at low concentrations (0.16-4 µM), and Uncoupler + inhibitor at high concentrations ( 20-100 µM)
Parkin recruitment [5, 23]: Inactive
MMP assays efficacy (%) qHTS-HepG2 (HepG2 cells [6]): -113±5%
IC50 (HepG2 cells [6]; [29]): 13 ± 2.17 µM
IC50 (HepG2 cells [7]; [24]): 42.8 µM
IC50 (HepG2 cells [7]; [25]): 44.6 ± 3.02 µM
IC50 (HepG2 cells [7]; [26]): 15.5 µM
Emax (HepG2 cells [7]): 114%
effect on ATP content (in words) ([8]; 0.5–100μM, 24 h exposure): statistically significant decreases in ATP content
minimal effective concentration [8]: 100 µM
Rat hepatocytes (efficacy) (MMP) (rat primary hepatocytes [9]): −98.8±9.27%
IC50 (rat primary hepatocytes [9]; [27]): 19.9 ± 1.35 µM
IC50 (rat primary hepatocytes [9]; [28]): 6.71 ± 1.14 µM
MMP assays efficacy (%) Rat Hepatocytes (rat primary hepatocytes [9]): -127±56%
effect on larval growth (in words) ([10]; 0.5–100μM, 48 h exposure): did not affect growth

CO[C@H]1/C=C/O[C@@]2(C)Oc3c(C)c(O)c4c(O)c(c(/C=N/N5CCN(C)CC5)c(O)c4c3C2=O)NC(=O)/C(C)=C\C=C\[C@H](C)[C@H](O)[C@@H](C)[C@@H](O)[C@@H](C)[C@H](OC(C)=O)[C@@H]1C [Rifampicin, reference compound]
EC50 (HepG2 cells [1]; HepG2, 2 h): 34.5 µM
ATP (HepG2, galactose) IC50 (HepG2 cells [2]): Inactive
ATP (HepG2, glucose) IC50 (HepG2 cells [2]): Inactive
p53 (HCT-116) EC50 [11]: Inactive
EC50 ([3]; HepG2, 16 h): 45.2 µM
Potential Mechanism [4]: Inactive
I-ADP, % of control (O2 consumption rate) ([4]; 4 µM): 85 (46.4) % of control
I-sub, % of control (O2 consumption rate) ([4]; 4 µM): 89 (11.7) % of control
II-ADP, % of control (O2 consumption rate) ([4]; 4 µM): 95 (83.4) % of control
II-sub, % of control (O2 consumption rate) ([4]; 4 µM): 96 (23.5) % of control
I-ADP, % of control (O2 consumption rate) ([4]; 20 µM): 71 (39.1) % of control
I-sub, % of control (O2 consumption rate) ([4]; 20 µM): 86 (11.3) % of control
II-ADP, % of control (O2 consumption rate) ([4]; 20 µM): 95 (84.2) % of control
II-sub, % of control (O2 consumption rate) ([4]; 20 µM): 107 (26.2) % of control
Parkin recruitment [5]: Inactive
HepG2 IC50 Galactose (MMP) (HepG2 cells [12]): Inactive
MMP assays efficacy (%) Rat Hepatocytes (rat primary hepatocytes [13]): -68±40%
Rat hepatocytes (efficacy) (MMP) (rat primary hepatocytes [13]): 41.4±5.71 ( −97.5±6.10 ) %
MMP assays efficacy (%) qHTS-HepG2 (HepG2 cells [6]): -94±13%
IC50 (HepG2 cells [6]; [29]): 25.1 ± 6.38 µM
IC50 (HepG2 cells [7]; [25]): 63.2 µM
IC50 (HepG2 cells [7]; [26]): 15.5 µM
Emax (HepG2 cells [7]): 85%
IC50 (rat primary hepatocytes [9]; [27]): 41.4 µM
IC50 (rat primary hepatocytes [9]; [28]): 6.15 ± 2.2 µM

CCc1cc(Cc2cc(CC)cc(C(C)(C)C)c2O)c(O)c(C(C)(C)C)c1
IC50 (hNSC): 1.28 ± 0.56 µM
EC50 (HepG2 cells [1]; [14]): 29.6 ± 4.08 µM
IC50 (HepG2 cells [2]; 5 mM glucose, 40 h treatment, mean±SD of three experiments, read-out: ATP (HepG2, glucose) IC50): 21.6 ± 13.8 µM
IC50 (HepG2 cells [2]; 10 mM galactose, 40 h treatment, mean±SD of three experiments, read-out: ATP (HepG2, galactose) IC50): 29.8 ± 7.25 µM
p53 (HCT-116) EC50 [11, 30]: Inactive
ARE (HepG2) EC50 [3, 30]: Inactive
Parkin recruitment [5, 23]: Inactive
IC50 (HepG2 cells [7]; [24]): 6.3 ± 0.43 µM
IC50 (HepG2 cells [7]; [25]): 5.42 ± 0.62 µM
Rat hepatocytes (efficacy) (MMP) (rat primary hepatocytes [9]): −103±17.9%
IC50 (rat primary hepatocytes [9]; [27]): 29.9 ± 7.25 µM
LEC (lowest effect concentration), larval growth assay ([10]; 48 h exposure): ≤ 10 µM
